Assay results reported in patent publication US12329753B2, “Phosphodiesterase inhibitor treatment” (Cyrano Therapeutics, Inc., priority 2008, dated 2025).
Marks after values point to notes of the source that are not given here.

How the values were obtained:
patients with hyposmia [1] = test: Hedonic (H) value of odors, -100-0-+100 scale, open trial of oral theophylline; type: in vivo, human
Method: In addition, each patient graded the hedonic (H) value of each odor presented for these same odor concentrations (from 10^−2M—an absolute odor concentration using a −100-0-+100 scale). […] Results were obtained by calculating the arithmetical sum of each correct recognition response for each odor with respect to its pleasantness, unpleasantness or neutrality. Arithmetic M±SEM were obtained for each treatment group for each odor presented.
After determination of hyposmia, patients were treated in an open label, fixed design, controlled open trial. Patients were given an oral extended release theophylline in divided daily doses taken in the middle of breakfast and lunch. All patients were initially given 200 mg of theophylline; changes in this dose were made based upon subjective responses to therapy. If at a subsequent return visit, patients reported ≥5% subjective improvement in overall smell function, they continued on this same dose of theophylline and were reevaluated after four to six months of continued treatment. Results from any subsequent return from these improved patients were not included in any subsequent data report. All subsequent comparisons between treated and untreated patients were made only between those patients continuing in the study compared to their own measurements obtained in the untreated state. If patients reported <5% subjective improvement, their theophylline dose was increased by 200 mg daily and they were scheduled for retesting at the study site after two to four months at this new dosage. For patients that reported <5% improvement, this sequence continued until patients reached 800 mg of theophylline, at which time the study was considered completed.
(§1) Patients returned for reevaluation after two to four months of treatment. Measurements of blood serum theophylline were measured by a fluorescence polarization assay (Abbott, Chicago, IL). At this time, subjective changes in smell function were measured independently (compared to patient's memory of previous normal smell function monitored by use of the patients' daily measurements) using the scale from −100-0-+100 previously described (vs). After independently recording their subjective responses, smell function was measured for all four odors with DT, RT, ME and H determined without recourse to prior measurements.

[2] = Blood serum theophylline, fluorescence polarization assay (Example 1); type: in vivo, human
Method: as §1

cAMP = test: Parotid saliva cAMP, 96 plate spectrophotometric assay; type: in vivo, human
Method: Parotid saliva was collected from each patient by application of a Lashley cup over Stensen's duct with lingual stimulation by placement of concentrated lemon juice. Saliva was collected in plastic tubes and stored at −20° C. until assayed. cAMP and cGMP were measured in saliva by a sensitive 96 plate spectrophotometric assay (R&D Systems, Minneapolis, MN).
All patients were placed in a fixed design open label clinical trial with treatment with oral theophylline. Treatment consisted of fixed treatment periods of two-eight months with sequential doses of the drug at 200 mg, 400 mg and 600 mg. At termination of each of these intervals, patients returned to study site for reevaluation. At the end of each interval subjective responses to treatment were measured with a modification of the 0-100 scale previously used (vs). […] Theophylline was assayed by a fluorescence polarization assay (Abbott, Chicago, IL), as previously described.
Data for the cyclic nucleotides from these 31 patients was not analyzed until the entire study of the 312 patients in Example 1 was assembled and analyzed in its entirety. […] The two patient groups were also analyzed post hoc with respect to type of smell loss and etiology of smell loss.

patients with hyposmia [3] = test: Side effects of intranasal theophylline; type: in vivo, human; details: intranasal 20 μg per naris once a day
Method: The patients inserted a plastic syringe containing 0.4 ml of fluid (20 μg theophylline) into each naris once a day. […] The drug dose was delivered through a plastic nipple which fitted snugly onto the filled syringe which was attached directly to the nipple. One nipple was supplied for each set of two syringes in each application kit. The patient fitted the nipple on one syringe, placed the nipple securely into the lower naris and injected the contents of the syringe directly into the lower vault of one naris accompanied by a modest inhalation. This technique was then used for the second syringe used for the other naris. The patients were instructed to administer the drug either seated or standing with their head in an erect, vertical position.

asthmatic patients = test: sGaw after inhaled dry powder in asthmatic patients, single blind study (Examples 5, 6); type: in vivo, human; details: dry powder 2 mg inhaled
Method: To test this theory, asthmatic patients are enrolled in a dose escalating single blind study. On arrival to the clinic, subjects are allowed to rest for 20 minutes before baseline measurements of FEV1 (six recordings) and sGaw (five recordings) are made. Subjects receive a dry powder dispenser loaded with a dose of 2 mg theophylline or a dry powder carrier. […] After each inhalation, measurements of sGaw are made at 1, 3, 5, 10, 15, 20, 25, and 30 minutes.
On completion of the last recording, subjects inhale a 200 μg dose of salbutamol from a metered inhaler and a further measurement of sGaw is made after 15 minutes. Subjects are also monitored for coughing and are questioned about the taste of the drug.
Asthmatic patients are enrolled in a dose escalating single blind study. On arrival to the clinic, subjects are allowed to rest for 20 minutes before baseline measurements of FEV1 (six recordings) and sGaw (five recordings) are made. Subjects receive a dry powder dispenser loaded with a dose of 1 mg IBMX formulated as a dry powder or a dry powder carrier. […] After each inhalation, measurements of sGaw are made at 1, 3, 5, 10, 15, 20, 25, and 30 minutes.
On completion of the last recording, subjects inhale a 200 μg dose of salbutamol from a metered inhaler and a further measurement of sGaw mad after 15 minutes. Subjects are also be monitored for coughing and are questioned about the taste of the drug.

[4] = asthma therapy; cited from earlier work
[5] = oral 400 mg daily, 2-6 months, all patients (120), mean ± SEM
[6] = oral 600 mg daily, 2-12 months, all patients (160), mean ± SEM
[7] = oral 800 mg daily, 2-12 months, all patients (28), mean ± SEM
[8] = oral 800 mg, Type I hyposmia (12), mean ± SEM

Cn1c(=O)c2[nH]cnc2n(C)c1=O [theophylline]
increase in H, amyl acetate (patients with hyposmia [1]; oral 200 mg): 2% | increase in H, nitrobenzene (patients with hyposmia [1]; oral 200 mg): 2% | increase of H value, amyl acetate (patients with hyposmia [1]; oral 200 mg, not statistically significant): 50% | change in H (more pleasant), amyl acetate (patients with hyposmia [1]; oral 400 mg): 1% | change in H (more pleasant), nitrobenzene (patients with hyposmia [1]; oral 400 mg): 4% | change in H, pyridine (patients with hyposmia [1]; oral 400 mg): 9% | change in H, thiophene (patients with hyposmia [1]; oral 400 mg): 7% | decrease of H value, thiophene (patients with hyposmia [1]; oral 400 mg): 40% | hedonic estimation (H), amyl acetate (patients with hyposmia [1]; [5]): 3 ± 2^ % | hedonic estimation (H), nitrobenzene (patients with hyposmia [1]; [5]): 8 ± 3^a % | hedonic estimation (H), pyridine (patients with hyposmia [1]; [5]): −26 ± 3^b % | hedonic estimation (H), thiophene (patients with hyposmia [1]; [5]): −19 ± 2^d % | increase of H value, nitrobenzene (patients with hyposmia [1]; oral 400 mg, not statistically significant): 50% | hedonic estimation (H), amyl acetate (patients with hyposmia [1]; [6]): 4 ± 1% | hedonic estimation (H), nitrobenzene (patients with hyposmia [1]; [6]): 8 ± 2^d % | hedonic estimation (H), pyridine (patients with hyposmia [1]; [6]): −19 ± 2 ^ % | hedonic estimation (H), thiophene (patients with hyposmia [1]; [6]): −14 ± 2 ^ % | decrease of H value, pyridine (patients with hyposmia [1]; oral 800 mg): 55% | decrease of H value, thiophene (patients with hyposmia [1]; oral 800 mg): 37% | increase of H value, amyl acetate (patients with hyposmia [1]; oral 800 mg): about 50% | increase of H value, nitrobenzene (patients with hyposmia [1]; oral 800 mg): about 50% | hedonic estimation (H), amyl acetate (patients with hyposmia [1]; [7]): 8 ± 5% | hedonic estimation (H), nitrobenzene (patients with hyposmia [1]; [7]): 13 ± 7 ^ % | hedonic estimation (H), pyridine (patients with hyposmia [1]; [7]): −22 ± 6% | hedonic estimation (H), thiophene (patients with hyposmia [1]; [7]): −15 ± 4% | hedonic value (row printed R), amyl acetate (patients with hyposmia [1]; [8]): −1 ± 4 ^ % | hedonic value (row printed R), nitrobenzene (patients with hyposmia [1]; [8]): 2 ± 2^a % | hedonic value (row printed R), pyridine (patients with hyposmia [1]; [8]): −11 ± 5^a % | hedonic value (row printed R), thiophene (patients with hyposmia [1]; [8]): −4 ± 2^a % | mean serum theophylline ([2]; oral 200 mg daily): 4.0±0.2 | mean serum theophylline ([2]; oral 400 mg daily): 7.4±0.4 | parotid saliva cAMP (cAMP; oral 400 mg, patients with improved smell function (12), mean ± SEM): 1.22 ± 0.33 pmol/mL | change of saliva cAMP (cAMP; oral 200, 400, 600 mg, unimproved patients): essentially no change | side effects (patients with hyposmia [3]): no side effects | increase in sGaw versus 200 μg salbutamol (asthmatic patients): comparable to that produced by salbutamol | sGaw above baseline measurement (asthmatic patients; after 30 minutes): 20% | therapeutic range for plasma concentrations [4]: 10 to 20 mg/L
